# Tests used:
# [1] = test system: Mycobacterium tuberculosis; experiment: Antituberculosis activity against Mycobacterium tuberculosis H37Rv assessed as parasite growth inhibition at 100 ug/ml after 4 days by microplate alamar blue assay; type: functional; conditions: 96 h, read-out: GI
# Enterococcus faecalis = experiment: Antibacterial activity against Enterococcus faecalis ATCC 29212 by radial diffusion assay; type: functional
# [2] = test system: Salmonella enterica subsp. enterica; experiment: Antibacterial activity against Salmonella Typhimurium ATCC 14028s by radial diffusion assay; type: functional, Salmonella enterica subsp. enterica serovar Typhimurium
# [3] = test system: Mycobacterium tuberculosis; experiment: Antituberculosis activity against Mycobacterium tuberculosis H37Rv assessed as parasite growth inhibition at 50 ug/ml after 4 days by microplate alamar blue assay; type: functional; conditions: 96 h, read-out: GI
# [4] = test system: Salmonella enterica subsp. enterica; experiment: Antibacterial activity against Salmonella Typhimurium EG10627 by radial diffusion assay; type: functional, Salmonella enterica subsp. enterica serovar Typhimurium
# Staphylococcus aureus = experiment: Antibacterial activity against Staphylococcus aureus ATCC 65380 by radial diffusion assay; type: functional
# [5] = Antiplatelet activity in rabbit platelets assessed as inhibition of PAF-induced platelet aggregation treated 5 mins before PAF challenge; type: functional, cell-based; conditions: Oryctolagus cuniculus
# Escherichia coli = experiment: Antibacterial activity against Escherichia coli ATCC 25922 by radial diffusion assay; type: functional
# [6] = test system: Salmonella enterica subsp. enterica; experiment: Antibacterial activity against Salmonella Typhimurium MS 7953 by radial diffusion assay; type: functional, Salmonella enterica subsp. enterica serovar Typhimurium
# [7] = test system: Mycobacterium tuberculosis; experiment: Antituberculosis activity against Mycobacterium tuberculosis H37Rv assessed as parasite growth inhibition at 25 ug/ml after 4 days by microplate alamar blue assay; type: functional; conditions: 96 h, read-out: GI
Structure (SMILES),inhibition of growth at 100 µg/mL [1] [%],growth inhibition (GI) (Enterococcus faecalis) [%],growth inhibition (GI) [2] [%],inhibition of growth at 50 µg/mL [3] [%],growth inhibition (GI) [4] [%],growth inhibition (GI) (Staphylococcus aureus) [%],IC50 [5] [nM],growth inhibition (GI) (Escherichia coli) [%],growth inhibition (GI) [6] [%],inhibition of growth at 25 µg/mL [7] [%]
C=CCC1=C[C@]2(OC)C(=O)[C@@](OC)(C1=O)[C@H](c1cc(OC)c3c(c1)OCO3)[C@H]2C [CINERIN A],8.1,<30,<30,7.2,<30,<30,16800,<30,<30,2.5
C=CCC1=C[C@@]2(OC)[C@H](C)[C@@H](c3cc(OC)c4c(c3)OCO4)[C@H](C1=O)[C@@H]2O [CINERIN B],19.5,<30,<30,20.9,<30,<30,1500,<30,<30,13.9
C=CCC1=C[C@]2(OC)[C@H](C)[C@@H](c3cc(OC)c4c(c3)OCO4)[C@](OC)(C1=O)[C@H]2O [CINERIN C],49.4,<30,<30,49.8,<30,<30,1100,<30,<30,43.8
C=CCC1=C[C@@]2(OC)C(=O)[C@](OC)([C@H](c3cc(OC)c4c(c3)OCO4)[C@H]2C)[C@H]1O [CINERIN D],7.3,<30,<30,6.2,<30,<30,6600,<30,<30,1.3
C[C@@H]1C(=O)O[C@H]2[C@H](O)[C@@]34[C@H]5C[C@@H](C(C)(C)C)[C@]36[C@@H](OC(=O)[C@@H]6O)O[C@@]4(C(=O)O5)[C@@]12O [GINKOLIDE B],–,–,–,–,–,–,930,–,–,–
NNC(=O)c1ccncc1 [ISONIAZID],–,–,–,–,–,–,–,–,–,94.2
C=CCC1=C[C@@]2(OC)C(=CC1=O)O[C@H](c1ccc(OC)c(OC)c1)[C@H]2C [KADSURENONE],–,–,–,–,–,–,120,–,–,–
C=C1C[C@@]23CC[C@H]4[C@@](C)(CCC[C@@]4(C)C(=O)O)[C@@H]2CC[C@@H]1C3 [KAURENOIC ACID],94.2,<30,<30,91.3,<30,<30,–,<30,<30,88.6
CO[C@H]1/C=C/O[C@@]2(C)Oc3c(C)c(O)c4c(O)c(c(/C=N/N5CCN(C)CC5)c(O)c4c3C2=O)NC(=O)/C(C)=C\C=C\[C@H](C)[C@H](O)[C@@H](C)[C@@H](O)[C@@H](C)[C@H](OC(C)=O)[C@@H]1C [RIFAMPIN],–,–,–,–,–,–,–,–,–,97.6

# — ChEMBL document CHEMBL1152390, “Macrophyllin-type bicyclo[3.2.1]octanoid neolignans from the leaves of Pleurothyrium cinereum” (J Nat Prod, 2009)
